Data: the NIST ThermoML archive (doi:10.1016/j.jct.2016.07.008)

Assay: xn = mol fraction of the nth substance listed
Conditions: Liquid, Vibrating wire viscometry

Cc1ccc(C)c(C)c1 [1,2,4-trimethylbenzene] + CCCCO
viscosity [mPa·s]
Conditions	293.15 K	313.15 K	333.15 K	353.15 K
100 kPa, x2 = 0.2999	1.004	0.7478	0.5848	0.4547
100 kPa, x2 = 0.5289	1.227	0.8685	0.6443	0.495
100 kPa, x2 = 0.7991	1.959	1.254	0.8537	0.6105
1000 kPa, x2 = 0.2999	1.019	0.7546	0.5927	0.4576
1000 kPa, x2 = 0.5289	1.228	0.8775	0.6496	0.4993
1000 kPa, x2 = 0.7991	1.977	1.271	0.8605	0.618
5000 kPa, x2 = 0.2999	1.066	0.7792	0.6096	0.4793
5000 kPa, x2 = 0.5289	1.29	0.9012	0.6816	0.5174
5000 kPa, x2 = 0.7991	2.057	1.332	0.8976	0.6396
10000 kPa, x2 = 0.2999	1.104	0.8286	0.6356	0.4978
10000 kPa, x2 = 0.5289	1.348	0.9526	0.7029	0.5381
10000 kPa, x2 = 0.7991	2.177	1.385	0.94	0.667
20000 kPa, x2 = 0.2999	1.197	0.8853	0.6805	0.5414
20000 kPa, x2 = 0.5289	1.462	1.029	0.753	0.5739
20000 kPa, x2 = 0.7991	2.381	1.506	1.026	0.7229
30000 kPa, x2 = 0.2999	1.292	0.9596	0.7326	0.577
30000 kPa, x2 = 0.5289	1.588	1.116	0.8089	0.6155
30000 kPa, x2 = 0.7991	2.563	1.645	1.107	0.7805
40000 kPa, x2 = 0.2999	1.391	1.025	0.7951	0.6166
40000 kPa, x2 = 0.5289	1.73	1.201	0.8688	0.6521
40000 kPa, x2 = 0.7991	2.757	1.759	1.197	0.8397
50000 kPa, x2 = 0.2999	1.516	1.105	0.8476	0.659
50000 kPa, x2 = 0.5289	1.87	1.293	0.9271	0.6945
50000 kPa, x2 = 0.7991	2.995	1.921	1.282	0.9004
60000 kPa, x2 = 0.2999	1.65	1.181	0.906	0.7031
60000 kPa, x2 = 0.5289	2.031	1.402	0.9904	0.7392
60000 kPa, x2 = 0.7991	3.241	2.046	1.379	0.9627
70000 kPa, x2 = 0.2999	1.804	1.271	0.9707	0.7463
70000 kPa, x2 = 0.5289	2.196	1.492	1.059	0.7855
70000 kPa, x2 = 0.7991	3.481	2.187	1.466	1.026
80000 kPa, x2 = 0.2999	1.938	1.357	1.03	0.7895
80000 kPa, x2 = 0.5289	2.401	1.612	1.131	0.8338
80000 kPa, x2 = 0.7991	3.754	2.342	1.577	1.092
100000 kPa, x2 = 0.2999	2.236	1.531	1.177	0.8968
100000 kPa, x2 = 0.5289	2.773	1.821	1.295	0.9482
100000 kPa, x2 = 0.7991	4.289	2.65	1.771	1.226
120000 kPa, x2 = 0.2999	2.578	1.753	1.308	0.997
120000 kPa, x2 = 0.5289	3.261	2.065	1.453	1.062
120000 kPa, x2 = 0.7991	4.849	2.995	1.945	1.367
140000 kPa, x2 = 0.2999	2.956	1.969	1.447	1.117
140000 kPa, x2 = 0.5289	3.719	2.367	1.615	1.194
140000 kPa, x2 = 0.7991	5.47	3.336	2.135	1.512
